The source of these data is patent US5200329A, “Method of hydroxylating 3-[(4,7-dichlorobenzoxazol-2-yl)methyl]amino-5-ethyl-6-methyl-2-(1H)-pyr idinone by incubation with liver slices” (Merck & Co., Inc., priority 1992, dated 1993).

Series [1] concerns the target T1, recombinant HIV reverse transcriptase (HIV RTR) (Human immunodeficiency virus type 1 group M subtype B, UniProt P04585).
T1 construct: recombinant HIV reverse transcriptase (HIV RTR)
As to the kind of experiment: Reverse Transcriptase Assay (incorporation of tritiated deoxyguanosine monophosphate into acid-precipitable cDNA). The class given is biochemical. Particulars: poly r(C).oligo d(G)12-18 and dGTP at about Km; 37° C., 45 minutes. The method, then: The assay measures the incorporation of tritiated deoxyguanosine monophosphate by recombinant HIV reverse transcriptase (HIV RTR) (or other RT) into acid-precipitable cDNA at the Km values of dGTP and poly r(C).oligo d(G)12-18.
Thirty uL of a reaction mixture containing equal volumes of: 500 mM Tris.HCl (pH 8.2), 300 mM MgCl2, 1200 mM KCl, 10 mM DTT, 400 μg/mL poly r(c).oligo d(G) [prepared by dissolving 1.5 mg (25 U) poly r(C).oligo d(G) in 1.5 ml sterile distilled H2 O and diluting to 400 μg/ml], 0.1 μCi/μl [^3 H] dGTP, 160 μM dGTP, was added to 10 μl sterile distilled H2 O, and 2.5 μl of potential inhibitor. An aliquot of 10 μL of 5 nM purified HIV RTR was added to initiate thereaction. The mixture was incubated at 37° C. for 45 minutes.
After incubation is complete, the tubes were cooled in ice for 5 minutes. Ice-cold 13% TCA containing 10 mM NaPPi (200 μl) are added and the mixture incubated on ice for 30 minutes. The precipitated cDNA is removed by filtration using presoaked glass filters [TCA, NaPPi ]. The precipitate is then washed with 1N HCl, 10 mM NaPPi.
The filter discs are then counted in a scintillation counter.
Under these conditions [dGTP] and poly r(C).oligo d(G)12-18 each are approximately equal to the appropriate Km value. Approximately 5-6,000 cpm of [^3 H] GMP are incorporated into acid-precipitable material. The RT reaction is concentration- and time-dependent. […] The calculated IC50 value for the compounds (Ia) and (Ib) of this incertion are as follows: […]

The nature of series [2]: Incubation With Human Liver Slices (metabolite formation by HPLC). The class given is in vitro ADME. Particulars: 2.85 μmol compound (II), 1.25 g wet weight liver slices (donor), Williams' Medium E, 37° C., four hours. Here is the method: Compound (II) (2.85 μmol) was incubated with liver slices (1.25 g wet weight) from a human donor in 20 ml of Williams' Medium E at 37° C. under an atmosphere of 5% CO2 in air for four hours. The metabolites were extracted into ethyl acetate followed by evaporation of the solvent. The residue was reconstituted in methanol and compared on HPLC with an extract of rat liver slice incubation of compound (II). The HPLC effluents were monitored by a UV-diode array detector, and fractionated for liquid scintillation spectrophotometry.

The structures appear in SMILES notation.

As for `Cc1[nH]c(=O)c(NCc2nc3c(Cl)ccc(Cl)c3o2)cc1C(C)O` (racemic) [Ia, 3-[(4,7-dichlorobenzoxazol-2-yl)methylamino]-5-(1-hydroxyethyl)-6-methylpyridin-2(1H)-one], in series [1], the IC50 came to 1050 nM.

For `CCc1cc(NCc2nc3c(Cl)ccc(Cl)c3o2)c(O)nc1C` [Compound II, 3-[(4,7-dichlorobenzoxazol-2-yl)-methyl]amino-5-ethyl-6-methyl-2(1H)-pyridinone], in series [1], the half-maximal inhibitory concentration (IC50) is 20 nM. Moreover, the “formation of metabolites indicated by HPLC comparisons of UV and radioactivity profiles” value in series [2] was “formation of Ia and Ib in the human liver slices incubation”.

As to `CCc1cc(NCc2nc3c(Cl)ccc(Cl)c3o2)c(=O)[nH]c1CO` [Ib, 3-[(4,7-dichlorobenzoxazole-2-yl)methylamino]-5-ethyl-6-hydroxymethylpyridi n-2(1H)-one], the IC50 in series [1] came out at 14 nM.
